Test results as given in ChEMBL document CHEMBL6087465, “Design, Synthesis, and Antitumor Activity Evaluation of 2-Phenylthiazole-5-Carboxylic Acid Derivatives Targeting Transactivation Response RNA-Binding Protein 2” (J Med Chem, 2025).
Active and inactive are the calls of the source. No cut-off for these calls is given here.

What was measured:
[1] = system: SK-HEP1; test: Antiproliferative activity against human SK-HEP1 cells cultured as 2D cells assessed as inhibition of cell growth at 10 uM incubated for 72 hrs by CCK-8 assay; format: functional, cell-based
[2] = system: HCCLM3; test: Antiproliferative activity against human HCCLM3 cells cultured as 2D cells assessed as inhibition of cell growth at 10 uM incubated for 72 hrs by CCK-8 assay; format: functional, cell-based
[3] = system: SK-HEP1; test: Antiproliferative activity against human SK-HEP1 cells cultured as 3D cells assessed as inhibition of cell growth at 10 uM incubated for 72 hrs by CellTiter-Lumi assay; format: functional, cell-based
[4] = system: HCCLM3; test: Antiproliferative activity against human HCCLM3 cells cultured as 3D cells assessed as inhibition of cell growth at 10 uM incubated for 72 hrs by CellTiter-Lumi assay; format: functional, cell-based
[5] = system: SK-HEP1; test: Inhibition of cell migration in human SK-HEP1 cells at 10 uM incubated for 24 hrs by wound healing assay; format: functional, cell-based
[6] = system: SK-HEP1; test: Inhibition of cell migration in human SK-HEP1 cells at 10 uM incubated for 24 hrs by transwell assay; format: functional, cell-based
[7] = system: HCCLM3; test: Inhibition of cell migration in human HCCLM3 cells at 10 uM incubated for 24 hrs by transwell assay; format: functional, cell-based
[8] = organism: Homo sapiens; test: Inhibition of recombinant human TRBP/recombinant human Dicer protein protein interaction at 25 uM by indirect-competition-ELISA
[9] = system: SK-HEP1; test: Antiproliferative activity against TARBP2-knockout human SK-HEP1 cells cultured as 3D cells assessed as inhibition of cell growth at 25 uM incubated for 72 hrs by CellTiter-Lumi assay; format: functional, cell-based
[10] = system: HCCLM3; test: Antiproliferative activity against TARBP2-knockout human HCCLM3 cells cultured as 3D cells assessed as inhibition of cell growth at 25 uM incubated for 72 hrs by CellTiter-Lumi assay; format: functional, cell-based
[11] = system: SK-HEP1; test: Antiproliferative activity against human SK-HEP1 cells cultured as 3D cells assessed as inhibition of cell growth at 25 uM incubated for 72 hrs by CellTiter-Lumi assay; format: functional, cell-based
[12] = system: HCCLM3; test: Antiproliferative activity against human HCCLM3 cells cultured as 3D cells assessed as inhibition of cell growth at 25 uM incubated for 72 hrs by CellTiter-Lumi assay; format: functional, cell-based
[13] = system: HCCLM3; test: Inhibition of cell migration in human HCCLM3 cells incubated for 24 hrs by transwell assay; format: functional, cell-based
[14] = system: SK-HEP1; test: Inhibition of cell migration in TARBP2-knockout human SK-HEP1 cells at 1 to 25 uM incubated for 24 hrs by transwell assay; format: functional, cell-based; details: dose 1-25 µM
[15] = system: HCCLM3; test: Inhibition of cell migration in TARBP2-knockout human HCCLM3 cells at 1 to 25 uM incubated for 24 hrs by transwell assay; format: functional, cell-based; details: dose 1-25 µM
[16] = system: HCCLM3; test: Antiproliferative activity against human HCCLM3 cells assessed as upregulation of SMAD7 expression incubated for 24 hrs by Western blotting analysis; format: functional, cell-based
[17] = system: HCCLM3; test: Antiproliferative activity against human HCCLM3 cells assessed as downregulation of SMAD3 phosphorylation incubated for 24 hrs by Western blotting analysis; format: functional, cell-based
[18] = Acute toxicity in Kunming mouse assessed as animal death at 100 mg/kg,ip administration measured after 14 days; format: organism-based; details: in vivo, 336 h, time 14 day
[19] = Acute toxicity in Kunming mouse assessed as body weight loss at 100 mg/kg,ip administration measured after 14 days; format: organism-based; details: in vivo, 336 h, time 14 day
[20] = Acute toxicity in Kunming mouse assessed as effect on AST level in liver at 100 mg/kg,ip administration measured after 14 days; format: organism-based; details: in vivo, 336 h, time 14 day
[21] = Acute toxicity in Kunming mouse assessed as effect on ALT level in liver at 100 mg/kg,ip administration measured after 14 days; format: organism-based; details: in vivo, 336 h, time 14 day
[22] = Acute toxicity in Kunming mouse assessed as effect on ALB level in liver at 100 mg/kg,ip administration measured after 14 days; format: organism-based; details: in vivo, 336 h, time 14 day
[23] = Acute toxicity in Kunming mouse assessed as effect on total bilirubin level in liver at 100 mg/kg,ip administration measured after 14 days; format: organism-based; details: in vivo, 336 h, time 14 day
[24] = Acute toxicity in Kunming mouse assessed as effect on urea level in kidney at 100 mg/kg,ip administration measured after 14 days; format: organism-based; details: in vivo, 336 h, time 14 day
[25] = Acute toxicity in Kunming mouse assessed as effect on creatinine level in kidney at 100 mg/kg,ip administration measured after 14 days; format: organism-based; details: in vivo, 336 h, time 14 day
[26] = Acute toxicity in Kunming mouse assessed as effect on uric acid level in kidney at 100 mg/kg,ip administration measured after 14 days; format: organism-based; details: in vivo, 336 h, time 14 day
[27] = Acute toxicity in Kunming mouse assessed as effect on creatine kinase level in heart at 100 mg/kg,ip administration measured after 14 days; format: organism-based; details: in vivo, 336 h, time 14 day
[28] = Acute toxicity in Kunming mouse assessed as effect on lactate dehydrogenase level in heart at 100 mg/kg,ip administration measured after 14 days; format: organism-based; details: in vivo, 336 h, time 14 day
[29] = Acute toxicity in Kunming mouse assessed as pathological change in heart at 100 mg/kg,ip administration measured after 14 days by hematoxylin and eosin staining based microscopic analysis; format: organism-based; details: in vivo, 336 h, time 14 day
[30] = Acute toxicity in Kunming mouse assessed as pathological change in spleen at 100 mg/kg,ip administration measured after 14 days by hematoxylin and eosin staining based microscopic analysis; format: organism-based; details: in vivo, 336 h, time 14 day
[31] = Acute toxicity in Kunming mouse assessed as pathological change in lung at 100 mg/kg,ip administration measured after 14 days by hematoxylin and eosin staining based microscopic analysis; format: organism-based; details: in vivo, 336 h, time 14 day
[32] = Half life in Sprague-Dawley rat at 25 mg/kg,po administration by LC-MS/MS analysis; format: ADME, organism-based; details: in vivo
[33] = Tmax in Sprague-Dawley rat at 10 mg/kg,iv administration by LC-MS/MS analysis; format: ADME, organism-based; details: in vivo
[34] = Tmax in Sprague-Dawley rat at 25 mg/kg,po administration by LC-MS/MS analysis; format: ADME, organism-based; details: in vivo
[35] = Cmax in Sprague-Dawley rat at 10 mg/kg,iv administration by LC-MS/MS analysis; format: ADME, organism-based; details: in vivo
[36] = AUC (0 to t) in Sprague-Dawley rat at 10 mg/kg,iv administration by LC-MS/MS analysis; format: ADME, organism-based; details: in vivo
[37] = AUC (0 to t) in Sprague-Dawley rat at 25 mg/kg,po administration by LC-MS/MS analysis; format: ADME, organism-based; details: in vivo
[38] = AUC (0 to infinity) in Sprague-Dawley rat at 10 mg/kg,iv administration by LC-MS/MS analysis; format: ADME, organism-based; details: in vivo
[39] = AUC (0 to infinity) in Sprague-Dawley rat at 25 mg/kg,po administration by LC-MS/MS analysis; format: ADME, organism-based; details: in vivo
[40] = MRT (0 to t) in Sprague-Dawley rat at 10 mg/kg,iv administration by LC-MS/MS analysis; format: ADME, organism-based; details: in vivo
[41] = MRT (0 to infinity) in Sprague-Dawley rat at 10 mg/kg,iv administration by LC-MS/MS analysis; format: ADME, organism-based; details: in vivo
[42] = MRT (0 to infinity) in Sprague-Dawley rat at 25 mg/kg,po administration by LC-MS/MS analysis; format: ADME, organism-based; details: in vivo
[43] = Clearance in Sprague-Dawley rat at 10 mg/kg,iv administration by LC-MS/MS analysis; format: ADME, organism-based; details: in vivo
[44] = Volume of distribution at steady state in Sprague-Dawley rat at 10 mg/kg,iv administration by LC-MS/MS analysis; format: ADME, organism-based; details: in vivo, read-out: Vdss

## Cc1nc(-c2ccc(N3CCOCC3)cc2)sc1C(=O)O
[1]
  Activity: inactive
[2]
  Activity: inactive
[3]
  Activity: Active
[4]
  Activity: Active
[5]
  inhibition: Active
[6]
  inhibition: Active
[7]
  inhibition: Active
[8]
  inhibition: Active
[9]
  Activity: inactive
[10]
  Activity: inactive
[11]
  Activity: Active
[12]
  Activity: Active
[13]
  inhibition: Dose-dependent-effect
[14]
  inhibition: inactive
[15]
  inhibition: inactive
[16]
  Activity: Dose-dependent-effect
[17]
  Activity: Dose-dependent-effect
[18]
  Activity: Non-toxic
[19]
  Activity: Non-toxic
[20]
  Activity: Non-toxic
[21]
  Activity: Non-toxic
[22]
  Activity: Non-toxic
[23]
  Activity: Non-toxic
[24]
  Activity: Non-toxic
[25]
  Activity: Non-toxic
[26]
  Activity: Non-toxic
[27]
  Activity: Non-toxic
[28]
  Activity: Non-toxic
[29]
  Activity: Non-toxic
[30]
  Activity: Non-toxic
[31]
  Activity: Non-toxic
[32]
  half-life: 197 min
[33]
  Tmax: 4.8 min
[34]
  Tmax: 25.2 min
[35]
  Cmax: 45900 ng/mL
[36]
  AUC(0-t): 37400 ng·h/mL
[37]
  AUC(0-t): 50400 ng·h/mL
[38]
  AUC(0-inf): 37500 ng·h/mL
[39]
  AUC(0-inf): 50600 ng·h/mL
[40]
  MRT last: 1.7 h
[41]
  MRT inf: 1.8 h
[42]
  MRT inf: 3.7 h
[43]
  clearance: 4.6 mL/min/kg
[44]
  Vd: 0.496 L/kg
